The text below walks through data of publication PMC8333062, “Chemical tools for epichaperome-mediated interactome dysfunctions of the central nervous system” (Nature Communications, 2021).

A short description of one series: PAMPA-BBB permeability. The settings on record: Supplementary Table 6.
The next series in a line: in vitro. The settings on record: PAMPA, pH 7.4. For orientation: PAMPA measures passive passage across an artificial lipid membrane.
The target of series [1] is HSP90 pools in JNPL3 (AD transgenic) mouse brain lysate. The series can be described thus: Fluorescence polarization (FP) competitive binding, cy3B-GM. As to conditions: displacement of cy3B-GM, 24 h, 4 °C; mean±SD, n=3; read-out: FP relative affinity. For orientation: In fluorescence polarisation assays a small probe gives low polarisation when free and higher when bound to something large.

The conditions of series [2]: 10 µM PU-HZ151, 60 min.
Experimental: PU-HZ151 (1 and 10 µM) was incubated with human, CD-1 mouse, Sprague Dawley rat, and beagle dog liver microsomes (0.5 mg protein/ml) and appropriate cofactors (2.5 mM NADPH and 3.3 mM MgCl2) in 100 mM phosphate buffer, pH 7.4, in a 37 °C shaking water bath. The incubation contained a final organic solvent concentration of 0.1% DMSO. Reactions were started with the addition of NADPH/magnesium chloride mix and stopped by removing 100 µL aliquots at selected time points (15, 30, and 60 min) and mixing with 200 µl of acetonitrile containing 100 ng/ml haloperidol (internal standard). […] Experimental controls consisted of: a) incubation with 1 or 5 µM propranolol as a positive control for metabolism, and b) incubation of 1 and 10 µM PU-HZ151 with heat-inactivated microsomes (0.5 mg protein mL^−1) for 0 and 60 min. All samples were assayed in duplicate. To determine metabolic stability of PU-HZ151, the percent remaining at each time point was calculated by dividing the peak area ratio of PU-HZ151 /internal standard at each time point by the mean peak area ratio at 0 min, multiplied by 100.
In order to detect and characterize metabolites of PU-HZ151 formed in selected microsomal incubation samples, the following procedures were used to prepare the samples: (1) microsomal incubation samples generated in the metabolic stability experiments (1 and 10 µM PU-HZ151, duplicate replicates per timepoint) were initially processed by addition of 2 parts acetonitrile containing the internal standard haloperidol, to 1 part sample, followed by vortexing, centrifugation, and transfer of the supernatant to a 1.5 mL microcentrifuge tube. Samples were stored at −80 °C prior to analysis for metabolites. (2) Samples were thawed to room temperature, vortexed, centrifuged, and a volume of the supernatant diluted 1:1 with 5% acetonitrile, to reduce the percent acetonitrile in the final sample. Samples were then transferred to HPLC vials with glass inserts for subsequent LC-MS analysis.
Samples were analyzed by LC-MS using positive-ion electrospray ionization and reverse-phase chromatography in full-scan mode with MS/MS product-ion spectra generated for detected metabolite masses. This was performed using the MS2 scan mode of the G6410B mass spectrometer to produce MS/MS product-ion spectra for masses detected at sufficient intensities. Chromatography was performed using a ZORBAX Eclipse XDB-C18 4.6 × 50 mm, 5 µm, column, with gradient elution at 1 mL min^−1. Mobile phase was comprised of A = MilliQ Water with 0.1% formic acid, B = acetonitrile.
Series [3] can be described thus: Pharmacokinetic studies in mice (LC-MS/MS). The series is classed as in vivo, B6D2F1 mice. Set-up: Plasma level: unit: uM. As to conditions: individual animals. The procedure: Blood and brain tissue were collected following euthanasia at the scheduled time points of 5, 30 min, 1, 4, and 8 h following iv dosing and of 30 min, 1, 4, and 8 h following po dosing. Brain samples were immediately flash frozen in liquid nitrogen following collection and stored at −80 °C until analysis. Blood samples were collected into an EDTA tube by heart puncture and centrifuged at 17,000×g for 5 min at 4 °C to separate the plasma and immediately frozen on dry ice and stored at −80 °C until analysis. […] This was homogenized, extracted with methylene chloride, and evaporated on a GeneVac. […] Drug concentration (μM) in the brain was then modified to account for an average water space of 0.8 mL g^−1.

The structures appear in SMILES notation. Where “and” joins values, the source holds several entries; their conditions need not be identical. Identical values can stand only once. Like-named read-outs stand apart in the source and are kept apart here.

Take `Nc1nc(F)nc2c1nc(Cc1cc3c(cc1I)OCO3)n2CCCN1CCCCC1` [Compound 67]: the PAMPA_BBB in the series “PAMPA-BBB permeability” amounted to 6.9±0.2. In “in vitro”, this compound showed a Papp at 16 h, 50 μM of 6.9 ± 0.2 ×10⁻⁶ cm/s. Moreover, the EC50 in series [1] amounted to 112 ± 6 nM.
For `NCCn1c(Sc2cc3c(cc2I)OCO3)nc2c(N)ncnc21` [Compound M1], the “% Peak area of metabolite” value is 53.0% in series [2] (replicate 1) and 59.1% in series [2] (replicate 2). Moreover, the Brain level in series [3] (time 5 min), in series [3] (time 0.5 h), in series [3] (time 1 h), in series [3] (time 4 h) and in series [3] (time 8 h) was 0 throughout. For the same compound, the Plasma level in series [3] (time 5 min), in series [3] (time 0.5 h), in series [3] (time 1 h), in series [3] (time 4 h) and in series [3] (time 8 h) was 0 in each case.
With `CC(C)(C)CNCCn1c(Sc2cc(O)c(O)cc2I)nc2c(N)ncnc21` [Compound M2], the figures for the “% Peak area of metabolite” value in series [2] (replicate 1) and in series [2] (replicate 2) were 13.0% and 9.0%, respectively. In addition, the Brain level is 0 (3×) and 0.75 and 0.71 in series [3] (time 5 min); 0.02 and 0.49 and 0 (2×) in series [3] (time 0.5 h); 0 (3×) and 0.04 in series [3] (time 1 h); 0 in series [3] (time 4 h); 0 in series [3] (time 8 h). Besides, the Plasma level in series [3] (time 5 min) is 0.04 and 0 (4×); in series [3] (time 0.5 h), 0.02 and 0 (3×); in series [3] (time 1 h), 0 (3×) and 0.03; in series [3] (time 4 h) it was 0; in series [3] (time 8 h) it was 0.
As for `NCCn1c(Sc2cc(O)c(O)cc2I)nc2c(N)ncnc21` [Compound M5], the results for the “% Peak area of metabolite” value in series [2] (replicate 1) and in series [2] (replicate 2) were 2.5% and 2.9%, respectively.

A word on the Papp: it is a coefficient for how fast a substance crosses the barrier.
